According to patent publication US12636284B2, “Compositions for use in the prevention and/or treatment of intellectual disability and neurodegenerative diseases in a subject with down syndrome” (UNIVERSITA' DEGLI STUDI DI ROMA “LA SAPIENZA”, priority 2021, dated 2026):

Legend:
GSK3b protein = test: GSK3b activation (pSer9/pTyr216 ratio) in primary hippocampal neurons isolated from Ts2Cje mice; assay type: cell-based, mouse; details: 1, 5, 10 μM for 24 hours
Procedure: For Western blots, 20 μg of proteins from the hippocampus of mice belonging to the four experimental groups were separated by 4-15% SDS-PAGE CriterionTM […] (Bio-rad, Hercules, CAUSE). […] Therefore, the gel, once the image has been acquired, represents the total of the loaded proteins (Total Load), which will then be used to normalize the specific proteins to be examined. After electrophoresis and gel imaging, proteins are transferred via the semi-dry TransBlot Turbo apparatus (Bio-Rad Laboratories) onto nitrocellulose membranes (Bio-Rad, Hercules, CA, USA). Nitrocellulose membranes are blocked with 3% bovine serum albumin (BSA) in a solution of Tween 20-TBS and incubated overnight at 4° C. using specific primary antibodies: p([…])-GSK3B (1:1000, Santa Cruz, #sc-135653), p(S9)-GSK3β (1:1000, Cell Signaling, #5558S), GSK3β (1:1000 Abcam, #93926) and DYRK1A (1:1000, Cell Signaling, #8765S), MAPK44/42 (1:1000, Cell Signaling, #9102), p[…])-MAPK44/42 (1 1000, Cell Signaling, #9101), Akt (1:2000, Bio-Rad, # vma00253K), p(S473) Akt (1:1000, Cell Signaling, #4060S). After three washes with a T-TBS buffer solution, membranes were incubated for 1 hour at room temperature with the secondary antibodies. Secondary antibodies with peroxidase activity are anti-mouse or anti-rabbit (1:5000, Bio-rad, Hercules, CA, USA). […] Finally, the results obtained were analyzed using the ImageLab program (Bio-rad, Hercules, CA, USA). […] In order to isolate primary hippocampal neurons, hippocampi from Ts and euploid mice were mechanically dissociated in PBS (with Ca^2+ and […]) and centrifuged (3 minutes, 1100 rpm, 25° C.). Subsequently, the pellet was resuspended in 0.25% trypsin solution and centrifuged further for 3 minutes at 1100 rpm at Tamb. At this point, the cell extract was resuspended in MEM 1 culture medium (Minimum Essential Medium complemented with fetal bovine serum (FBS-1%), L-glutamine 200 mM (1%), glucose 25 mM (1%), gentamicin 0.1 mg/ml) and centrifuged for 10 minutes, 1100 rpm at 25° C. […]

DYRK1A protein = DYRK1A protein levels in primary hippocampal neurons isolated from Ts2Cje mice; assay type: cell-based, mouse; details: 1, 5, 10 μM for 24 hours, vs untreated Ts2Cje
Procedure: For Western blots, 20 μg of proteins from the hippocampus of mice belonging to the four experimental groups were separated by 4-15% SDS-PAGE Criterion™ TGX (Tris-Glyicine eXtended) Stain-Free™ (Bio-rad, Hercules, CAUSE). This type of gel allows a rapid acquisition of the protein run in the ultraviolet (UV) by Chemidoc™ MP imaging systems (Bio-rad, Hercules, CA, USA). Therefore, the gel, once the image has been acquired, represents the total of the loaded proteins (Total Load), which will then be used to normalize the specific proteins to be examined. After electrophoresis and gel imaging, proteins are transferred via the semi-dry TransBlot Turbo apparatus (Bio-Rad Laboratories) onto nitrocellulose membranes (Bio-Rad, Hercules, CA, USA). Nitrocellulose membranes are blocked with 3% bovine serum albumin (BSA) in a solution of Tween 20-TBS and incubated overnight at 4° C. using specific primary antibodies: p(T216)-GSK3B (1:1000, Santa Cruz, #sc-135653), p(S9)-GSK3β (1:1000, Cell Signaling, #5558S), GSK3β (1:1000 Abcam, #93926) and DYRK1A (1:1000, Cell Signaling, #8765S), MAPK44/42 (1:1000, Cell Signaling, #9102), p(Thr202/Tyr204)-MAPK44/42 (1 1000, Cell Signaling, #9101), Akt (1:2000, Bio-Rad, # vma00253K), p(S473) Akt (1:1000, Cell Signaling, #4060S). After three washes with a T-TBS buffer solution, membranes were incubated for 1 hour at room temperature with the secondary antibodies. Secondary antibodies with peroxidase activity are anti-mouse or anti-rabbit (1:5000, Bio-rad, Hercules, CA, USA). Membranes were developed using Clarity Enhanced Chemiluminescence (ECL), a chemiluminescent substrate (Bio-rad, Hercules, CA, USA) and acquired with Chemidoc Mp (Bio-rad, Hercules, CA, USA). Finally, the results obtained were analyzed using the ImageLab program (Bio-rad, Hercules, CA, USA).
In order to isolate primary hippocampal neurons, hippocampi from Ts and euploid mice were mechanically dissociated in PBS (with Ca^2+ and Mg^2−) and centrifuged (3 minutes, 1100 rpm, 25° C.). […]

SMILES | activity of the GSK3B protein in Ts2Cje neurons (GSK3b protein) | levels of the DYRK1A protein in Ts2Cje neurons (DYRK1A protein)
Cn1c(=O)cc(N2CCC[C@@H](N)C2)n(Cc2ccccc2C#N)c1=O [alogliptin] | significant increase | significant reduction
N#C[C@@H]1CCCN1C(=O)CNC12CC3CC(CC(O)(C3)C1)C2 [vildagliptin] | significant increase | significant reduction
